# Laboratory results reported in ChEMBL document CHEMBL1138244, “Three-dimensional quantitative structure-activity relationships and activity predictions of human TRPV1 channel antagonists: comparative molecular field analysis and comparative molecular similarity index analysis of cinnamides” (J Med Chem, 2007).
# Experiment: Inhibition of rat human chimera TRPV1 channel expressed in CHO cells
# Type: cell-based
IC50 [nM],pIC50,Structure (SMILES)
216,6.66,CC(C)(C)c1ccc(/C=C/C(=O)Nc2ccc3c(c2)O[C@H](CO)CO3)cc1
1470,5.83,O=C(/C=C/c1ccc(F)cc1)Nc1ccc2c(c1)OCCO2
391,,CC(C)(C)c1ccc(/C=C/C(=O)Nc2ccc3c(c2)OCC(=O)N3)cc1
10700,4.97,CC(C)(C)c1ccc(/C=C(/C(=O)Nc2ccc3c(c2)OCCO3)c2ccccc2)cc1
1270,5.9,CC(C)(C)c1ccc(/C=C/C(=O)Nc2ccc3c(c2)OC[C@@H](CN)O3)cc1
1010,5.99,CC(C)Cc1ccc(/C=C/C(=O)Nc2ccc3c(c2)OCCO3)cc1
48,7.32,CCC(C)(C)c1ccc(/C=C/C(=O)Nc2ccc3c(c2)OCCO3)cc1
> 40000,4.4,CC(C)(C)c1ccc(/C=C/CNc2ccc3c(c2)OCCO3)cc1
1020,5.99,COC[C@@H]1COc2cc(NC(=O)/C=C/c3ccc(C(C)(C)C)cc3)ccc2O1
501,6.3,CC/C(=C\c1ccc(C(C)(C)C)cc1)C(=O)Nc1ccc2c(c1)OCCO2
19,,CC(C)(C)c1ccc(/C=C/C(=O)Nc2ccc3cc[nH]c3c2)cc1
> 40000,4.4,O=C(/C=C/c1ccc(-c2ccccc2)cc1)Nc1ccc2c(c1)OCCO2
269,6.57,CC(C)(C)c1ccc(/C=C/C(=O)Nc2ccccc2)cc1
18,,CC(C)(C)c1ccc(/C=C/C(=O)Nc2ccc3oc(=O)cnc3c2)cc1
26,7.58,CCOC(=O)c1cc(C(C)(C)C)ccc1/C=C/C(=O)Nc1ccc2c(c1)OCCO2
61,7.22,O=C(C=C(c1ccc(Br)cc1)c1ccc(Br)cc1)Nc1ccc2c(c1)OCCO2
1310,5.88,O=C(/C=C/c1ccc(F)c(F)c1)Nc1ccc2c(c1)OCCO2
2,8.78,O=C(/C=C/c1ccc(C(F)(F)F)nc1N1CCOCC1)Nc1ccc2cccnc2c1
120,6.92,O=C(/C=C/c1ccc(C(F)(F)F)cc1)Nc1ccc2c(c1)OCCO2
643,6.19,O=C(/C=C/c1cccc2ccccc12)Nc1ccc2c(c1)OCCO2
419,6.38,O=C(/C=C/c1ccc(C2CC2)cc1)Nc1ccc2c(c1)OCCO2
293,6.53,Cc1ccc(/C=C/C(=O)Nc2ccc3c(c2)OCCO3)cc1
33,7.48,CC(C)(C)c1ccc(/C=C/C(=O)Nc2cccc(C(N)=O)c2)cc1

IC50 [nM],pIC50,Structure (SMILES)
1900,5.72,CC(C)(C)c1ccc(/C=C\C(=O)Nc2ccc3c(c2)OCCO3)cc1
15400,4.81,CC(C)(C)c1ccc(/C=C(/C(=O)Nc2ccc3c(c2)OCCO3)C2CCCC2)cc1
1,8.94,O=C(/C=C/c1ccc(C(F)(F)F)nc1N1CCCCC1)Nc1ccc2cccnc2c1
173,,CC(C)(C)c1ccc(/C=C/C(=O)Nc2ccc3c(c2)NCCO3)cc1
144,6.84,CC(C)(C)c1ccc(/C(=C/C(=O)Nc2ccc3c(c2)OCCO3)c2cccnc2)cc1
740,6.13,O=C(/C=C/c1ccc2ccccc2c1)Nc1ccc2c(c1)OCCO2
545,6.26,CCC(C)/C(=C\c1ccc(C(C)(C)C)cc1)C(=O)Nc1ccc2c(c1)OCCO2 (stereo not drawn)
1210,5.92,O=C(/C=C/c1cccc(C(F)(F)F)c1)Nc1ccc2c(c1)OCCO2
24,7.62,CC(C)(C)c1ccc(/C=C/C(=O)Nc2ccc3c(c2)OC[C@H](CO)O3)cc1
583,6.23,O=C(/C=C/c1ccc([N+](=O)[O-])cc1)Nc1ccc2c(c1)OCCO2
1320,5.88,CN(C)c1ccc(/C=C/C(=O)Nc2ccc3c(c2)OCCO3)cc1
157,6.8,CC(C)(C)c1ccc(/C=C/C(=O)Nc2ccc3c(c2)OCCO3)c(Br)c1
859,6.07,COc1ccccc1NC(=O)/C=C/c1ccc(C(C)(C)C)cc1
665,6.18,CN(C)C[C@@H]1COc2cc(NC(=O)/C=C/c3ccc(C(C)(C)C)cc3)ccc2O1
343,6.46,CC(C)(C)c1ccc(/C(I)=C/C(=O)Nc2ccc3c(c2)OCCO3)cc1
254,6.59,CC(C)(C)c1ccc(/C=C/C(=O)Nc2ccc3c(c2)O[C@@H](CO)CO3)cc1
279,6.55,Cc1ccccc1/C(=C/C(=O)Nc1ccc2c(c1)OCCO2)c1ccc(C(C)(C)C)cc1
247,6.61,CCc1ccc(/C=C/C(=O)Nc2ccc3c(c2)OCCO3)cc1
1070,5.97,O=C(/C=C/c1ccc(C(F)(F)F)nc1)Nc1ccc2c(c1)OCCO2
183,6.74,CC(C)(C)c1ccc(/C=C/C(=O)Nc2ccc3c(c2)OCCO3)cn1
230,6.64,COc1ccc(NC(=O)/C=C/c2ccc(C(C)(C)C)cc2)cc1OC
155,6.81,COc1cccc(/C(=C/C(=O)Nc2ccc3c(c2)OCCO3)c2ccc(C(C)(C)C)cc2)c1
47,7.33,CC(C)(C)c1ccc(/C(=C/C(=O)Nc2ccc3c(c2)OCCO3)c2ccc(C(F)(F)F)cc2)cc1
